Laboratory results: patent publication US10660877B2 (BRISTOL-MYERS SQUIBB COMPANY, priority 2016, dated 2020)
Like-named read-outs stand apart in the source and are kept apart here.

Experiments:
[1] = target: human TLR8 (Homo sapiens (Human), UniProt Q9NR97); assay: TLR8 inhibition reporter assay (HEK-Blue cells, SEAP reporter, R848 stimulation);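 note: compounds tested from 0.05 nM to 50 µM, 22 h at 37 °C, SEAP measured with HEK-Blue Detection, inhibition relative to agonist plus DMSO versus a known inhibitor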
Experimental: TLR7/8/9 Inhibition Reporter Assays
(§1) Briefly, cells are seeded into Greiner 384 well plates (15000 cells per well for TLR7, 20,000 for TLR8 and 25,000 for TLR9) and then treated with test compounds in DMSO to yield a final dose response concentration range of 0.05 nM-50 μM. […] After a 22 hour incubation at 37° C., 5% CO2, SEAP levels are determined with the addition of HEK-Blue™ Detection reagent (Invivogen), a cell culture medium that allows for detection of SEAP, according to manufacturer's specifications. The percent inhibition is determined as the % reduction in the HEK-Blue signal present in wells treated with agonist plus DMSO alone compared to wells treated with a known inhibitor.

[2] = target: human TLR7 (Homo sapiens (Human), UniProt Q9NYK1); assay: TLR7 inhibition reporter assay (HEK-Blue cells, SEAP reporter, gardiquimod stimulation); assay type: cell-based
[3] = target: human TLR9 (Homo sapiens (Human), UniProt Q9NR96); assay: TLR9 inhibition reporter assay (HEK-Blue cells, SEAP reporter, ODN2006 stimulation);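 note: compounds tested over 0.05 nM to 50 µM, 22 h incubation, inhibition taken as SEAP signal drop from agonist plus DMSO wells toward a known inhibitor control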
Experimental: TLR7/8/9 Inhibition Reporter Assays
as §1

[4] = read-out: TLR8 IC50, HEK-Blue cells overexpressing human TLR8, R848 15.9 μM
[5] = HEK-Blue cells overexpressing human TLR7, gardiquimod 7.5 μM
[6] = read-out: TLR9 IC50, HEK-Blue cells overexpressing human TLR9, ODN2006 5 nM
[7] = read-out: TLR8 IC50, HEK-Blue cells, R848 15.9 μM
[8] = HEK-Blue cells, gardiquimod 7.5 μM
[9] = read-out: TLR9 IC50, HEK-Blue cells, ODN2006 5 nM
[10] = TLR8 IC50, HEK-Blue cells overexpressing human TLR8, R848 15.9 μM
[11] = TLR9 IC50, HEK-Blue cells overexpressing human TLR9, ODN2006 5 nM

Sequence of human TLR9 (Q9NR96 26-1032): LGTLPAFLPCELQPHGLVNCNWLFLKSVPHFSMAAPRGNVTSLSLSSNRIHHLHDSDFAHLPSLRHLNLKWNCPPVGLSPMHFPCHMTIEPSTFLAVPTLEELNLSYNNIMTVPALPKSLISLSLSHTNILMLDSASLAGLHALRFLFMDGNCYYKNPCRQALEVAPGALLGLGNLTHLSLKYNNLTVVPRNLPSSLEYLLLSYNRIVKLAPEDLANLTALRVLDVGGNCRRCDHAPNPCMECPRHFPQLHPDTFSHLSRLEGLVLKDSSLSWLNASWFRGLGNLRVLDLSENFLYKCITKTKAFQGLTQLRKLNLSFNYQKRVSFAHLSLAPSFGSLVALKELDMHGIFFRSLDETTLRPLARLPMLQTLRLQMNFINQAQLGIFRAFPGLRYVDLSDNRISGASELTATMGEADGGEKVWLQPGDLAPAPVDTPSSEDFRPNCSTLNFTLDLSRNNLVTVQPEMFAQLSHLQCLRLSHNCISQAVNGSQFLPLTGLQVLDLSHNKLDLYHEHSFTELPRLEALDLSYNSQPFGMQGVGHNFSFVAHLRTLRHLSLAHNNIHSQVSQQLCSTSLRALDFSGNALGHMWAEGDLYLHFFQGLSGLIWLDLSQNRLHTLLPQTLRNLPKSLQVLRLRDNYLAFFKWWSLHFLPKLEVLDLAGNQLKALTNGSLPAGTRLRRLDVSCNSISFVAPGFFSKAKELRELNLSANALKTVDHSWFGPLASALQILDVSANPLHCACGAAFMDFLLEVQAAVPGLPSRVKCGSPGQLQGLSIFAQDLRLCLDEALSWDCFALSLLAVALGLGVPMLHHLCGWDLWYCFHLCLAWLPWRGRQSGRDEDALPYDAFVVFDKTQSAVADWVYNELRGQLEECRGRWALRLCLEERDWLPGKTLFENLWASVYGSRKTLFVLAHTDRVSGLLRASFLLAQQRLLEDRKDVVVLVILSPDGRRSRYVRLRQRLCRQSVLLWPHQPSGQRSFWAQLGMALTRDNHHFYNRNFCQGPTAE
Sequence of human TLR7 (Q9NYK1 27-1049): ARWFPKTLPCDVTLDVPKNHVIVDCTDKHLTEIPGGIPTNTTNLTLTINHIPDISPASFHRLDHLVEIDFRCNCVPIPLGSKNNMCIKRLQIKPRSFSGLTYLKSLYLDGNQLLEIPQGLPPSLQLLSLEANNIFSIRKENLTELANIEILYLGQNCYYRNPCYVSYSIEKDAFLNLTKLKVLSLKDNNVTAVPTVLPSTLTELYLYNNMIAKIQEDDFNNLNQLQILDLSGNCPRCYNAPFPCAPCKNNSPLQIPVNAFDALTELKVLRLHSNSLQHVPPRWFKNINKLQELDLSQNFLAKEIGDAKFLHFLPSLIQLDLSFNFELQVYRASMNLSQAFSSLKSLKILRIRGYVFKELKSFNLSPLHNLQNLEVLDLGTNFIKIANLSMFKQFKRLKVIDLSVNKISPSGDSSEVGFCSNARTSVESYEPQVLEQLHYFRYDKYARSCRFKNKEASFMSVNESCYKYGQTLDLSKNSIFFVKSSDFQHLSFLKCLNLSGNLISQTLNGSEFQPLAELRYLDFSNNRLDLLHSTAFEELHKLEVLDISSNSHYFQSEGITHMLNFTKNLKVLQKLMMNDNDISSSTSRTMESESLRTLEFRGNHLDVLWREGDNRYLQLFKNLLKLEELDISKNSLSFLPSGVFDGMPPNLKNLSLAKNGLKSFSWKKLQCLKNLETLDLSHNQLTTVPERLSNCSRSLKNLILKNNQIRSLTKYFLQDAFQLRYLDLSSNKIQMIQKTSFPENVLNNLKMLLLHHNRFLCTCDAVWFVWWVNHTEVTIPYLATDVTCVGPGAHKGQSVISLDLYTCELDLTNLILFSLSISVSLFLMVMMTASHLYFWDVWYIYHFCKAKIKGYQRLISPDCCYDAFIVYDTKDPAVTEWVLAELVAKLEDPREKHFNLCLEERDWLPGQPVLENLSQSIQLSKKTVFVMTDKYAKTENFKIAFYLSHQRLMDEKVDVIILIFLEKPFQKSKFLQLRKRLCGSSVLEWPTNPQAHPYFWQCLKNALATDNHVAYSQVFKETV
Sequence of human TLR8 (Q9NR97 27-1041): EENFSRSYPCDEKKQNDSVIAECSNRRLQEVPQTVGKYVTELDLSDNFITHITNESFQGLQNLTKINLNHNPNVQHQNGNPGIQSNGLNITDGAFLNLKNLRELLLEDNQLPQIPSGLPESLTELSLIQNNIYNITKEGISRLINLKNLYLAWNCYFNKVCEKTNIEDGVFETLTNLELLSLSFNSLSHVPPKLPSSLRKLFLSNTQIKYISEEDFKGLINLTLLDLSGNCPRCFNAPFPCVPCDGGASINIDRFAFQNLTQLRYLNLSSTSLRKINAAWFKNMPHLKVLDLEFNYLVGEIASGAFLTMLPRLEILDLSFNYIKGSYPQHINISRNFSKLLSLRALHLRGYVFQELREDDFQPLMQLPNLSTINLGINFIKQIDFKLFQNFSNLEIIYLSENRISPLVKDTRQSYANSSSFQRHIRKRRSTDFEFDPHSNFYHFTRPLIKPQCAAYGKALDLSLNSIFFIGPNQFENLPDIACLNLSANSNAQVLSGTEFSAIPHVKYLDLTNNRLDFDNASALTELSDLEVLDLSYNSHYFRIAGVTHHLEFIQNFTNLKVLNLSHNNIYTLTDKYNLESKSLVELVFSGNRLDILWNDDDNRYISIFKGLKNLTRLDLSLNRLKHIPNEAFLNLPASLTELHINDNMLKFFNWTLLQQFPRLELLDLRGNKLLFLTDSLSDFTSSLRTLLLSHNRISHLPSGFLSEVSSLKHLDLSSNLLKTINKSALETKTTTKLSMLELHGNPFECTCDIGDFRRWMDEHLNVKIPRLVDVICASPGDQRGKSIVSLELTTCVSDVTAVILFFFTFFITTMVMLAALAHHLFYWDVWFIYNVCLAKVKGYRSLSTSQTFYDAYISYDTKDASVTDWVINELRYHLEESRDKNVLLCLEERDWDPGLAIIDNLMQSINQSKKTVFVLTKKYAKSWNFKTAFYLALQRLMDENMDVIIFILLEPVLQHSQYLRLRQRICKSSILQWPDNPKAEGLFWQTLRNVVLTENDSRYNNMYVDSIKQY

Row | IC50 [1, 4] [µM] | IC50 [2, 5] [µM] | IC50 [3, 6] [µM] | IC50 [1, 7] [µM] | IC50 [2, 8] [µM] | IC50 [3, 9] [µM] | IC50 [1, 10] [µM] | IC50 [3, 11] [µM] | Structure (SMILES)
1 | 0.262 | 0.174 | 0.603 |  |  |  |  |  | Cc1cc(-c2[nH]c3ccc(C4CCN(C(=O)[C@H]5CC[C@H](N)CC5)CC4)cc3c2C(C)C)ccn1 [Example 764, ((1r,4r)-4-aminocyclohexyl) (4-(3-isopropyl-2-(2-methylpyridin-4-yl)-1H-indol-5-yl)piperidin-1-yl)methanone]
2 |  |  |  | 0.0048 | 0.0012 | 0.267 |  |  | Cc1cc(-c2[nH]c3cc(F)c(C4CCN(C)CC4)cc3c2C(C)C)cc(C)n1 [Example 828, 2-(2,6-dimethylpyridin-4-yl)-6-fluoro-3-isopropyl-5-(1-methylpiperidin-4-yl)-1H-indole]
3 | 0.0409 | 0.674 | 1.1 |  |  |  |  |  | CCc1c(-c2ccnc(OC)c2)[nH]c2ccc(C3CCN([C@H]4CCCNCC4)CC3)cc12 [Example 794, (S)-5-(1-(azepan-4-yl)piperidin-4-yl)-3-ethyl-2-(2-methoxypyridin-4-yl)-1H-indole]
4 | 0.009 | 0.0037 | 2.7 |  |  |  |  |  | Cc1cc(-c2[nH]c3ccc(C4CCN(CC(=O)NC5CCOC5)CC4)cc3c2C(C)C)cc(C)n1 (stereo not drawn) [Example 282, 2-(4-(2-(2,6-dimethylpyridin-4-yl)-3-isopropyl-1H-indol-5-yl)piperidin-1-yl)-N-(tetrahydrofuran-3-yl)acetamide]
5 | 0.21 | 0.0704 | 5.26 |  |  |  |  |  | Cc1cc(-c2[nH]c3ccc(C4CCN(Cc5nn[nH]n5)CC4)cc3c2C(C)C)cc(C)n1 [Example 462, 5-(1-((2H-tetrazol-5-yl)methyl)piperidin-4-yl)-2-(2,6-dimethylpyridin-4-yl)-3-isopropyl-1H-indole]
6 | 0.0841 | 0.005 | 5.5 |  |  |  |  |  | Cc1cc(-c2[nH]c3ccc(C4CCN(C(=O)c5cscn5)CC4)cc3c2C(C)C)cc(C)n1 [Example 201, (4-(2-(2,6-dimethylpyridin-4-yl)-3-isopropyl-1H-indol-5-yl)piperidin-1-yl)(thiazol-4-yl)methanone]
7 | 0.0273 | 0.0054 | 0.549 |  |  |  |  |  | Cc1cc(-c2[nH]c3ccc(C4CCN(C(=O)C5CCNCC5)CC4)cc3c2C(C)C)cc(C)n1 [Example 178, (4-(2-(2,6-dimethylpyridin-4-yl)-3-isopropyl-1H-indol-5-yl)piperidin-1-yl)(piperidin-4-yl)methanone]
8 | 0.158 | 0.0125 | 16.2 |  |  |  |  |  | Cc1cc(-c2[nH]c3ccc(C4CCN(C(=O)CCNS(=O)(=O)c5ccccc5)CC4)cc3c2C(C)C)cc(C)n1 [Example 120, N-(3-(4-(2-(2,6-dimethylpyridin-4-yl)-3-isopropyl-1H-indol-5-yl)piperidin-1-yl)-3-oxopropyl)benzenesulfonamide]
9 | 0.0472 | 0.0048 | 24.4 |  |  |  |  |  | Cc1cc(-c2[nH]c3ccc(C4CCN(C(=O)Cn5nnnc5C)CC4)cc3c2C(C)C)cc(C)n1 [Example 159, 1-(4-(2-(2,6-dimethylpyridin-4-yl)-3-isopropyl-1H-indol-5-yl)piperidin-1-yl)-2-(5-methyl-1H-tetrazol-1-yl)ethan-1-one]
10 | 0.184 | 0.0514 | 1.85 |  |  |  |  |  | Cc1cc(-c2[nH]c3ccc(C4CCN(C(=O)CS(C)(=O)=O)CC4)cc3c2C(C)C)ccn1 [Example 608, 1-(4-(3-isopropyl-2-(2-methylpyridin-4-yl)-1H-indol-5-yl)piperidin-1-yl)-2-(methylsulfonyl)ethan-1-one]
11 | 0.0041 | 0.0352 | 9.45 |  |  |  |  |  | Cc1cc(-c2[nH]c3ccc(C4CCN(Cc5cc(C)on5)CC4)cc3c2C(C)C)c(F)cn1 [Example 686, 3-((4-(2-(5-fluoro-2-methylpyridin-4-yl)-3-isopropyl-1H-indol-5-yl)piperidin-1-yl)methyl)-5-methylisoxazole]
12 | 0.0037 | 0.0021 | 0.401 |  |  |  |  |  | CCN1CCC(c2ccc3[nH]c(-c4cc(C)nc(C)c4)c(C(C)C)c3c2)CC1 [Example 322, 2-(2,6-dimethylpyridin-4-yl)-5-(1-ethylpiperidin-4-yl)-3-isopropyl-1H-indole]
13 |  | 0.0225 |  |  |  |  | 0.0477 | 2.25 | Cc1cc(-c2[nH]c3ccc(C4CCN(CC(=O)NCC(C)(C)C)CC4)cc3c2C(C)C)cc(C)n1 [Example 219, 2-(4-(2-(2,6-dimethylpyridin-4-yl)-3-isopropyl-1H-indol-5-yl)piperidin-1-yl)-N-neopentylacetamide]
14 | 0.0258 | 0.0062 | 1.02 |  |  |  |  |  | Cc1cc(-c2[nH]c3ccc(C4CCN(CC(=O)NC(C)(C)C)CC4)cc3c2C(C)C)cc(C)n1 [Example 217, N-(tert-butyl)-2-(4-(2-(2,6-dimethylpyridin-4-yl)-3-isopropyl-1H-indol-5-yl)piperidin-1-yl)acetamide]
15 | > 50 | 23.6 | 2.55 |  |  |  |  |  | Cc1cc(-c2[nH]c3ccc(C4CCNCC4)cc3c2C(C)(C)C)ccn1 [Example 86, 3-(tert-butyl)-2-(2-methylpyridin-4-yl)-5-(piperidin-4-yl)-1H-indole]
16 | 0.0192 | 0.0106 | 3.69 |  |  |  |  |  | CCc1cc(-c2[nH]c3ccc(C4CCNCC4)cc3c2C(C)C)c(F)cn1 [Example 482, 2-(2-ethyl-5-fluoropyridin-4-yl)-3-isopropyl-5-(piperidin-4-yl)-1H-indole]
17 | 0.0087 | 0.0027 | 0.274 |  |  |  |  |  | Cc1cc(-c2[nH]c3ccc(C4CCN(C5CCCOC5)CC4)cc3c2C(C)C)cc(C)n1 (stereo not drawn) [Example 457, 2-(2,6-dimethylpyridin-4-yl)-3-isopropyl-5-(1-(tetrahydro-2H-pyran-3-yl)piperidin-4-yl)-1H-indole]
18 | 0.0716 | 0.0073 | 53.1 |  |  |  |  |  | Cc1cc(-c2[nH]c3ccc(C4CCN(C(=O)CNS(C)(=O)=O)CC4)cc3c2C(C)C)cc(C)n1 [Example 150, N-(2-(4-(2-(2,6-dimethylpyridin-4-yl)-3-isopropyl-1H-indol-5-yl)piperidin-1-yl)-2-oxoethyl) methanesulfonamide]
19 | 0.0035 | 0.0024 | 0.566 |  |  |  |  |  | Cc1cc(-c2[nH]c3ccc(C4CCN(CC(C)O)CC4)cc3c2C(C)C)cc(C)n1 (stereo not drawn) [Example 331, 1-(4-(2-(2,6-dimethylpyridin-4-yl)-3-isopropyl-1H-indol-5-yl)piperidin-1-yl)propan-2-ol]
20 | 0.0019 | 0.0093 | > 50 |  |  |  |  |  | Cc1cc(-c2[nH]c3ccc(C4CCN(CCC#N)CC4)cc3c2C(C)C)c(F)cn1 [Example 656, 3-(4-(2-(5-fluoro-2-methylpyridin-4-yl)-3-isopropyl-1H-indol-5-yl)piperidin-1-yl)propanenitrile]
21 | 0.0066 | 0.002 | 0.201 |  |  |  |  |  | Cc1cc(-c2[nH]c3ccc(C4CCN(CC(=O)N5CCCC(O)C5)CC4)cc3c2C(C)C)cc(C)n1 (stereo not drawn) [Example 277, 2-(4-(2-(2,6-dimethylpyridin-4-yl)-3-isopropyl-1H-indol-5-yl)piperidin-1-yl)-1-(3-hydroxypiperidin-1-yl)ethan-1-one]
22 |  |  |  | 0.0052 | 0.0127 | 0.753 |  |  | CC(=O)N1CCC(N2CCC(c3ccc4[nH]c(-c5ccnc(C)c5)c(C(C)C)c4c3)CC2)CC1 [Example 827, 1-(4-(3-isopropyl-2-(2-methylpyridin-4-yl)-1H-indol-5-yl)-[1,4′-bipiperidin]-1′-yl)ethan-1-one]
23 | 0.383 | 1.31 | 0.124 |  |  |  |  |  | Cc1c(-c2ccncc2)[nH]c2ccc(C3CCN(C4CCN(CC(C)C)CC4)CC3)cc12 [Example 782, 5-(1′-isobutyl-[1,4′-bipiperidin]-4-yl)-3-methyl-2-(pyridin-4-yl)-1H-indole]
24 | 0.0249 | 0.0114 | 1.72 |  |  |  |  |  | CCC(C)NC(=O)CN1CCC(c2ccc3[nH]c(-c4cc(C)nc(C)c4)c(C(C)C)c3c2)CC1 (stereo not drawn) [Example 234, N-(sec-butyl)-2-(4-(2-(2,6-dimethylpyridin-4-yl)-3-isopropyl-1H-indol-5-yl)piperidin-1-yl)acetamide]
25 |  | 0.0081 |  |  |  |  | 0.0035 | 3.57 | CNCC(=O)N1CCC(c2ccc3[nH]c(-c4cc(C)ncc4C)c(C(C)C)c3c2)CC1 [Example 620, 1-(4-(2-(2,5-dimethylpyridin-4-yl)-3-isopropyl-1H-indol-5-yl)piperidin-1-yl)-2-(methylamino)ethan-1-one]
26 | 0.131 | 0.0054 | 44.6 |  |  |  |  |  | COCC(=O)N1CCC(c2ccc3[nH]c(-c4cc(C)nc(C)c4)c(C(C)C)c3c2)CC1 [Example 115, 1-(4-(2-(2,6-dimethylpyridin-4-yl)-3-isopropyl-1H-indol-5-yl)piperidin-1-yl)-2-methoxyethan-1-one]
27 | 0.0737 | 0.0117 | > 50 |  |  |  |  |  | Cc1cc(-c2[nH]c3ccc(C4CCN(C(=O)CN5C[C@@H](O)CC5=O)CC4)cc3c2C(C)C)cc(C)n1 [Example 169, (S)-1-(2-(4-(2-(2,6-dimethylpyridin-4-yl)-3-isopropyl-1H-indol-5-yl)piperidin-1-yl)-2-oxoethyl)-4-hydroxypyrrolidin-2-one]
28 | 0.128 | 1.66 | 7.79 |  |  |  |  |  | CC(C)c1c(-c2c(Cl)cncc2Cl)[nH]c2ccc(C3CCNCC3)cc12 [Example 20, 2-(3,5-dichloropyridin-4-yl)-3-isopropyl-5-(piperidin-4-yl)-1H-indole]
